Measured values as given in ChEMBL document CHEMBL5724914, “Linking interpersonal differences in gut microbiota composition and drug biotransformation activity” (2024).

How the values were obtained:
[1] = human gut metagenome, 24 h, 2 µM
[2] = (§1) The drug is tested on Z-011 corresponding to mouse gut metagenome with ENA study accession number: PRJEB37062 and ENA sample accession number: ERS12561811 for biotransformation under anaerobic condition. The drug concentrations were measured over 9 timepoints collected between 0 and 24 hours of incubation by liquid-chromatography-coupled mass spectrometry (LC–MS); conditions: 2 µM
[3] = human gut metagenome, 24 h, 2 µM; remark: listed apart in the source
[4] = as §1, with “Z-016” for “Z-011”, “ERS12561815” for “ERS12561811”; conditions: 2 µM
[5] = as §1, with “WLS-039” for “Z-011”, “human” for “mouse”, “ERS12561746” for “ERS12561811”; conditions: 2 µM
[6] = human gut metagenome, 24 h, 2 µM; remark: listed apart in the source
[7] = as §1, with “Z-002” for “Z-011”, “rabbit” for “mouse”, “ERS12561802” for “ERS12561811”; conditions: 2 µM
[8] = as §1, with “Z-014” for “Z-011”, “rat” for “mouse”, “ERS12561814” for “ERS12561811”; conditions: 2 µM
[9] = human gut metagenome, 24 h, 2 µM; remark: listed apart in the source
[10] = as §1, with “WLS-310” for “Z-011”, “human” for “mouse”, “ERS12561785” for “ERS12561811”; conditions: 2 µM
[11] = as §1, with “WLS-170” for “Z-011”, “human” for “mouse”, “ERS12561762” for “ERS12561811”; conditions: 2 µM
[12] = as §1, with “Z-019” for “Z-011”, “rat” for “mouse”, “ERS12561818” for “ERS12561811”; conditions: 2 µM
[13] = human gut metagenome, 24 h, 2 µM; remark: listed apart in the source
[14] = human gut metagenome, 24 h, 2 µM; remark: listed apart in the source
[15] = as §1, with “Z-018” for “Z-011”, “pig” for “mouse”, “ERS12561817” for “ERS12561811”; conditions: 2 µM
[16] = human gut metagenome, 24 h, 2 µM; remark: listed apart in the source
[17] = human gut metagenome, 24 h, 2 µM; remark: listed apart in the source
[18] = as §1, with “WLS-082” for “Z-011”, “human” for “mouse”, “ERS12561751” for “ERS12561811”; conditions: 2 µM
[19] = human gut metagenome, 24 h, 2 µM; remark: listed apart in the source
[20] = as §1, with “WLS-220” for “Z-011”, “human” for “mouse”, “ERS12561769” for “ERS12561811”; conditions: 2 µM
Also: call rule not given here.

Row | Structure (SMILES) | Bacterial Biotransformation [1] | Bacterial Biotransformation [2] | Bacterial Biotransformation [3] | Bacterial Biotransformation [4] | Bacterial Biotransformation [5] | Bacterial Biotransformation [6] | Bacterial Biotransformation [7] | Bacterial Biotransformation [8] | Bacterial Biotransformation [9] | Bacterial Biotransformation [10] | Bacterial Biotransformation [11] | Bacterial Biotransformation [12] | Bacterial Biotransformation [13] | Bacterial Biotransformation [14] | Bacterial Biotransformation [15] | Bacterial Biotransformation [16] | Bacterial Biotransformation [17] | Bacterial Biotransformation [18] | Bacterial Biotransformation [19] | Bacterial Biotransformation [20]
1 | COC(=O)Nc1nc2ccc(C(=O)c3ccccc3)cc2[nH]1 [MEBENDAZOLE] | Compound metabolized | Compound metabolized | Compound metabolized | Compound metabolized | Compound metabolized | Compound metabolized | Compound metabolized | Compound NOT metabolized | Compound metabolized | Compound metabolized | Compound metabolized | Compound NOT metabolized | Compound metabolized | Compound NOT metabolized | Compound metabolized | Compound metabolized | Compound metabolized | Compound metabolized | Compound metabolized | Compound metabolized
2 | COc1ccccc1OCC(O)COC(N)=O (stereo not given) [METHOCARBAMOL] | Compound NOT metabolized | Compound NOT metabolized | Compound NOT metabolized | Compound NOT metabolized | Compound NOT metabolized | Compound NOT metabolized | Compound NOT metabolized | Compound NOT metabolized | Compound NOT metabolized | Compound NOT metabolized | Compound NOT metabolized | Compound NOT metabolized | Compound NOT metabolized | Compound NOT metabolized | Compound NOT metabolized | Compound NOT metabolized | Compound NOT metabolized | Compound NOT metabolized | Compound NOT metabolized | Compound NOT metabolized
3 | CC[C@@H](CO)NC(=O)[C@@H]1C=C2c3cccc4c3c(cn4C)C[C@H]2N(C)C1.O=C(O)/C=C\C(=O)O [METHYSERGIDE MALEATE] | Compound NOT metabolized | Compound NOT metabolized | Compound NOT metabolized | Compound NOT metabolized | Compound NOT metabolized | Compound NOT metabolized | Compound NOT metabolized | Compound NOT metabolized | Compound NOT metabolized | Compound metabolized | Compound metabolized | Compound NOT metabolized | Compound NOT metabolized | Compound NOT metabolized | Compound NOT metabolized | Compound NOT metabolized | Compound NOT metabolized | Compound NOT metabolized | Compound NOT metabolized | Compound NOT metabolized
4 | CCN(CC)CCNC(=O)c1cc(Cl)c(N)cc1OC [METOCLOPRAMIDE] | Compound NOT metabolized | Compound NOT metabolized | Compound NOT metabolized | Compound NOT metabolized | Compound NOT metabolized | Compound NOT metabolized | Compound NOT metabolized | Compound NOT metabolized | Compound NOT metabolized | Compound NOT metabolized | Compound NOT metabolized | Compound NOT metabolized | Compound NOT metabolized | Compound NOT metabolized | Compound NOT metabolized | Compound NOT metabolized | Compound NOT metabolized | Compound NOT metabolized | Compound NOT metabolized | Compound NOT metabolized
5 | Cc1ccccc1N1C(=O)c2cc(S(N)(=O)=O)c(Cl)cc2NC1C (stereo not given) [METOLAZONE] | Compound metabolized | Compound NOT metabolized | Compound metabolized | Compound NOT metabolized | Compound NOT metabolized | Compound NOT metabolized | Compound NOT metabolized | Compound NOT metabolized | Compound NOT metabolized | Compound NOT metabolized | Compound NOT metabolized | Compound NOT metabolized | Compound metabolized | Compound metabolized | Compound NOT metabolized | Compound NOT metabolized | Compound NOT metabolized | Compound NOT metabolized | Compound NOT metabolized | Compound metabolized
6 | COCCc1ccc(OCC(O)CNC(C)C)cc1.COCCc1ccc(OCC(O)CNC(C)C)cc1.O=C(O)C(O)C(O)C(=O)O (stereo not given) [METOPROLOL TARTRATE] | Compound NOT metabolized | Compound NOT metabolized | Compound metabolized | Compound NOT metabolized | Compound NOT metabolized | Compound NOT metabolized | Compound metabolized | Compound NOT metabolized | Compound metabolized | Compound metabolized | Compound metabolized | Compound NOT metabolized | Compound NOT metabolized | Compound metabolized | Compound NOT metabolized | Compound NOT metabolized | Compound NOT metabolized | Compound NOT metabolized | Compound NOT metabolized | Compound NOT metabolized
7 | COc1c(C)c2c(c(O)c1C/C=C(\C)CCC(=O)OCCN1CCOCC1)C(=O)OC2 [MYCOPHENOLATE MOFETIL] | Compound metabolized | Compound metabolized | Compound metabolized | Compound metabolized | Compound metabolized | Compound metabolized | Compound metabolized | Compound metabolized | Compound metabolized | Compound metabolized | Compound metabolized | Compound NOT metabolized | Compound metabolized | Compound metabolized | Compound metabolized | Compound metabolized | Compound NOT metabolized | Compound metabolized | Compound metabolized | Compound metabolized
8 | CCN(CC)CCOC(=O)C(Cc1cccc2ccccc12)CC1CCCO1.O=C(O)C(=O)O (stereo not given) [NAFRONYL OXALATE] | Compound metabolized | Compound NOT metabolized | Compound metabolized | Compound metabolized | Compound metabolized | Compound NOT metabolized | Compound metabolized | Compound NOT metabolized | Compound metabolized | Compound metabolized | Compound metabolized | Compound NOT metabolized | Compound NOT metabolized | Compound metabolized | Compound metabolized | Compound metabolized | Compound metabolized | Compound metabolized | Compound NOT metabolized | Compound metabolized
